Assay [1] deals with Plasmodium falciparum W-2 clone (CDC Indochina III). The assay is described as follows: In vitro antimalarial study, [3H]hypoxanthine uptake, W-2 clone. It is filed as cell-based. To be noted: for IC50 W-2: P. falciparum W-2 clone; for IC50: Plasmodium falciparum, read-out: IC50 W-2. On the procedure: (§1) B. Antimalarial Activities: (a). In Vitro Antimalarial Studies. The in vitro assays were conducted by using a modification of the semiautomated microdilution technique of Desjardins et al and Chulay et al.. Four P. falciparum malaria parasite clones, from CDC Indochina III (W-2), CDC Sierra Leone I (D-6), Southeast Asia Isolates (TM91C235) and RCS (Isolates from Brazil) were utilized in susceptibility testing. They were derived by direct visualization and micromanipulation from patient isolates. The W-2 clone is susceptible to mefloquine but resistant to chloroquine, sulfadoxine, pyrimethamine, and quinine, whereas the D-6 clone is naturally resistant to mefloquine but susceptible to chloroquine, sulfadoxine, pyrimethamine and quinine. Test compounds were initially dissolved in DMSO and diluted 400 fold in RPMI 1640 culture medium supplemented with 25 mM Hepes, 32 mM NaHCO3 and 10% Albumax I (Gibco BRL, Grand Island, N.Y.). These solutions were subsequently serially diluted two-fold with a Biomek 1000 (Beckman, Fullerton, Calif.) over 11 different concentrations. The parasites were exposed to serial dilutions of each compound for 48 hrs and incubated at 37° C. with 5% O2, 5% CO2 and 90% N2 prior to the addition of [^3H]hypoxanthine. After a further incubation of 18 hrs, parasite DNA was harvested from each microtiter well using Packard Filtermate 196 Harvester (Meriden, Conn.) onto glass filters. Uptake of [^3H]hypoxanthine was measured with a Packard Topcount Scintillation. Concentration-response data were analyzed by a non-linear regression logistic dose response model and the IC50 values (50% inhibitory concentrations) for each compound were calculated. (Table 3). (b). In Vivo Antimalarial Studies against P. berghei in mice: The in vivo efficacy of the artelinic acid analogs were determined in a modified Thompson test. This test measures the survivability of mice and parasitemia clearance following administration of drug on days 3-5 post infection. In brief, 5×10^6 P. berghei-infected erythrocytes (KBG-173 strain) were inoculated intraperitoneally to female mice that weighed 24-30 g. By day three post-infection, parasitemia ranged from 1.0-3.7%. Each drug, dissolved in 5% sodium bicarbonate, was administered PO twice daily from day 3-5 post-infection. Total doses for each drug ranged from 1.5-384 mg/kg with 8 mice included in each dosage group. The percent suppression of parasitemia in the treated mice compared to the untreated controls was determined for each test compound; the SD-50 (fifty percent suppression dose) and SD-90 were determined from a non-linear regression logistic dose response fit at day 6 parasitemia data. Survival of mice to day 60 post-infection was considered a cure (C). Compounds were considered active (A) when the survival time of the treated mice was greater than twice the control mice, i.e., 12-14 day (Table 4-5). (c). Sporozoite Induced Test Each compound is ground with a mortar & pestle and suspended in 0.5% hydroxyethylcellulose—0.1% Tween 80 for compounds to be administered PO and those given SC are suspended in peanut oil. Each compound is prepared at 3 different dose levels as requested by WRAIR. Compounds are administered either PO or SC to mice once 4 hr before inoculation of sporozoites. Four-week-old male CD-1 mice, purchased from Charles River and weighing 16-17 g, are placed 5 per cage and allowed to acclimate for 4 days before being treated and then inoculated with sporozoites. They are fed food and water ad-lib and maintained at 76° F. with 12 hr light and 12 hr darkness. The cages and water bottles are changed biweekly. The mice are weighed on Days 0, 3 and 6 then biweekly when blood films are taken. Plasmodium yoelii (17×) is used to infect mice that will be used to infect the mosquitoes. Mice are given a single dose of test compound 4 hr before being inoculated intraperitoneally with 2.5×10^5 sporozoites of Plasmodium yoelii on Day 0. […]

The test system of assay [2] is Plasmodium falciparum TM91C235 (Southeast Asia Isolates). Put plainly: In vitro antimalarial study, [3H]hypoxanthine uptake, TM91C235 clone. The format is cell-based. The following applies: for IC50 TM91C235: P. falciparum TM91C235 clone; for IC50: Plasmodium falciparum, read-out: IC50 TM91C235. The procedure: as §1
In assay [3] the test system is Plasmodium falciparum RCS (Isolates from Brazil). Put plainly: In vitro antimalarial study, [3H]hypoxanthine uptake, RCS clone. It is filed as cell-based. To be noted: P. falciparum RCS clone; for IC50: Plasmodium falciparum. On the procedure:
as §1

Assay [4] has as its system Plasmodium berghei (KBG-173 strain). It is filed as in vivo. To be noted: mice, oral. The procedure:
as §1

Assay [5] deals with Plasmodium falciparum D-6 clone (CDC Sierra Leone I). The assay is described as follows: In vitro antimalarial study, [3H]hypoxanthine uptake, D-6 clone. It is filed as cell-based. The following applies: for IC50 D-6: P. falciparum D-6 clone; for IC50: Plasmodium falciparum, read-out: IC50 D-6. On the procedure:
as §1

The next assay concerns Plasmodium berghei. Put plainly: Antimalarial activity against Plasmodium berghei in mice by subcutaneous injection. The format is in vivo.
Assay [6] concerns Plasmodium yoelii (17x) sporozoites. The assay is described as follows: Sporozoite induced test in mice. It is filed as in vivo. To be noted: P. yoelii, mice, oral. The procedure: as §1, with “mosquitoes. […] Whole body weights” for “mosquitoes. Mice”, “are taken” for “are given a single dose of test compound 4 hr before being inoculated intraperitoneally with 2.5×10^5 sporozoites of Plasmodium yoelii”, “Day 0 and Day 6 then twice a week for 31 days. A blood film is taken on Day 5 and then twice a week for 31 days. Mice loosing >20% of their body weight will be sacrificed.” for “Day 0.”

Converted amounts (≈) assume the structure as drawn. Like-named read-outs stand apart in the source and are kept apart here.

For `CCOC(=O)Nc1nc(N(C(=O)OCC)C(=O)OCC)c2c(ccc3c2ccn3Cc2ccccc2C(F)(F)F)n1` [Compound 2c], the “IC50 W-2” value in assay [1] is above 250 ng/mL. For the same compound, the “IC50 TM91C235” value in assay [2] is above 250 ng/mL. Further, in assay [3], the “IC50 RCS” value is above 250 ng/mL. For the same compound, in assay [4] (80-1.25 mg/kg/day), the “# Mice Alive Day 30/Total” value is on record as 5/5 and the “# Mice Dead/Day Died” value is reported as “None”. Moreover, the “IC50 D-6” value in assay [5] is given as above 250 ng/mL.

Take `CC(C)(C)OC(=O)Nc1nc(N(C(=O)OC(C)(C)C)C(=O)OC(C)(C)C)c2c(ccc3c2ccn3Cc2ccccc2C(F)(F)F)n1` [Compound 2i]: the “IC50 W-2” value in assay [1] is on record as 33.569 ng/mL (≈ 51 nM). For the same compound, the “IC50 TM91C235” value in assay [2] turned out to be 97.708 ng/mL (≈ 149 nM). In assay [3], the “IC50 RCS” value was 26.380 ng/mL (≈ 40.1 nM). Also, the “IC50 D-6” value in assay [5] is 1.9252 ng/mL (≈ 2.93 nM). In addition, in the assay on Plasmodium berghei (40-2.5 mg/kg/day), the “# Mice Alive Day 31/Total” value was 7/7 and the “# Mice Dead/Day Died” value is listed as “none”.

As for `CC(C)(C)OC(=O)N(C(=O)OC(C)(C)C)c1nc(N(C(=O)OC(C)(C)C)C(=O)OC(C)(C)C)c2c(ccc3c2ccn3Cc2ccccc2C(F)(F)F)n1` [Compound 2j], the “# Mice Alive Day 31/Total” value was 2/7 in the assay on Plasmodium berghei (2.5 mg/kg/day), 6/7 in the assay with Plasmodium berghei (10 mg/kg/day), 7/7 in the assay on Plasmodium berghei (20 mg/kg/day) and 5/7 in the assay with Plasmodium berghei (40 mg/kg/day). The “# Mice Dead/Day Died” value is 1/24 in the assay with Plasmodium berghei (10 mg/kg/day), “none” with Plasmodium berghei (20 mg/kg/day) and 2/19 in the assay on Plasmodium berghei (40 mg/kg/day).

Turning to `CC(=O)Nc1nc(N)nc2ccc3c(ccn3Cc3ccccc3C(F)(F)F)c12` [Compound 3a], the IC50 – broadly, the concentration that inhibits the measured activity by half – in assay [1] stood at 0.0186 ng/mL (≈ 0.0466 nM); in assay [2], 0.0206 ng/mL (≈ 0.0516 nM); in assay [3], 0.0096 ng/mL (≈ 0.024 nM); in assay [5], 0.0097 ng/mL (≈ 0.0243 nM).

Regarding `CC(=O)N(C(C)=O)c1nc(N)nc2ccc3c(ccn3Cc3ccccc3C(F)(F)F)c12` [Compound 3b], the IC50 was 0.0183 ng/mL (≈ 0.0415 nM) in assay [1], 0.0212 ng/mL (≈ 0.048 nM) in assay [2], 0.0116 ng/mL (≈ 0.0263 nM) in assay [3] and 0.0101 ng/mL (≈ 0.0229 nM) in assay [5].

With `CC(=O)Nc1nc(N(C(C)=O)C(C)=O)c2c(ccc3c2ccn3Cc2ccccc2C(F)(F)F)n1` [Compound 3d], the figures for the “# Mice Dead/Day Died” value in assay [4] (10-0.625 mg/kg/day) and in assay [4] (220-40 mg/kg/day) were “death in each group” and “None”, respectively. For the same compound, the “# Mice Alive Day 30/Total” value in assay [4] (220-40 mg/kg/day) is on record as 5/5.

Take `Nc1nc(N2C(=O)CCC2=O)nc2ccc3c(ccn3Cc3ccccc3C(F)(F)F)c12` [Compound 3f, 1-Amino-3-(1-pyrrolidine-2,5-dione)-7-(2-trifluoromethyl-benzyl)-7H-pyrrolo[3,2-f]quinazoline]: the IC50 in assay [1] and in assay [5] was below 0.488 ng/mL each time.

Consider `O=C1CCC(=O)N1c1nc(N2C(=O)CCC2=O)c2c(ccc3c2ccn3Cc2ccccc2C(F)(F)F)n1` [Compound 3g, 1,3-Bis-(1-pyrrolidine-2,5-dione)-7-(2-trifluoromethyl)benzyl-7H-pyrrolo[3,2-f]quinazoline], for which, in assay [1], the “IC50 W-2” value stood at 0.1284 ng/mL (≈ 0.246 nM). Besides, the “IC50 TM91C235” value in assay [2] came to 0.4021 ng/mL (≈ 0.771 nM). For the same compound, in assay [3], the “IC50 RCS” value is recorded as 0.2571 ng/mL (≈ 0.493 nM). Besides, the “# Mice Alive Day 30/Total” value in assay [4] (80 mg/kg/day) was 2/5; in assay [4] (40-10 mg/kg/day), 0/5. Also, in assay [4] (40-10 mg/kg/day), the “# Mice Dead/Day Died” value is “deaths in each group”. Also, the “IC50 D-6” value in assay [5] was 0.1284 ng/mL (≈ 0.246 nM).

On to `Nc1nc(O)c2c(ccc3c2ccn3Cc2ccccc2C(F)(F)F)n1` [Compound 4, 1-hydroxy-3-amino-7-(2-trifluromethyl)benzyl-7H-pyrrolo [3,2-f]quinazoline], for which the results for the IC50 in assay [1], in assay [2] and in assay [5] were 53.9 ng/mL (≈ 150 nM), 83.4 ng/mL (≈ 233 nM) and 7.24 ng/mL (≈ 20.2 nM), respectively. In assay [4] (Thompson test), the “oral dose range giving 100% cure against P. berghei” value lay within 80 to 180 mg/kg. Moreover, the “# Mice Alive Day 30/Total” value was 1/5 in assay [4] (320 mg/kg/day) and 5/5 in assay [4] (160-80 mg/kg/day). Further, the “# Mice Dead/Day Died” value is given as “deaths in each group” in assay [4] (40-10 mg/kg/day) and “none” in assay [4] (160-80 mg/kg/day).

For the compound `COc1cc(C)c2c(Oc3cccc(C(F)(F)F)c3)c(OC)cc(NC(C)CCCN)c2n1` (stereo not drawn) [Tefenoquine, reference compound], the “Number of Mice Cured” value in assay [6] (1.25 mg/kg) is recorded as 2/5; in assay [6] (2.5 mg/kg), 4/5; in assay [6] (5 mg/kg), 5/5; in assay [6] (10 mg/kg), 5/5.

(Values after US7253177B2, “Synthesis and antimalarial activity of pyrrolo[3,2-f]quinazoline-1,3-diamine derivatives” (United States of America as Represented by the Secretary of …, priority 2004, dated 2007).)
